Test system: D. suzukii
Experiment: Laboratory choice assays (double-choice ventilated arenas)
Assay type: in vivo, Drosophila suzukii
Settings: vs flies selecting deionized water and flies not making any choice; 24 h; P<0.001
Procedure: Constant and uniform airflow was created within each of the containers using a vacuum at 1.5 L mid′ from the base and through the upper portion of each of the respective containers. Attraction to the matrix containing the ingredients of the exemplary insect control composition was verified in double-choice behavioral experiments. Arenas were prepared using 2-L transparent Griffin-style graduated low-form plastic beakers (Nalgene, Rochester, N.Y.). For each beaker, 9 ventilation holes (1 cm diameter) were cut along the circumference approximately 6 cm from the base. The holes were covered with fine white mesh in order to prevent D. suzukii individuals from escaping. The top of each beaker was drilled and connected to a 0.5 cm diameter plastic tube providing a vacuum in order to create a constant and uniform air flow (1.5 L min^−1) within the containers. Beakers were placed upside down on a flat work surface covered by white paper sheets. Two 25 mL plastic cups (Dart Container Corporation, Mason, Mich.) containing ˜10 mL of water and 5 g of arabinogalactan were placed at the base of each beaker. Both cups were covered with a wax film (Parafilm® M, Pechiney, Chicago, Ill.). 3 holes (˜0.3 cm diameter) were cut on the film coverings in order to allow the flies to enter the cups. […]

For arabinogalactan, the “number of flies selecting deli cups containing arabinogalactan” value was “significantly higher”.
